Assay results: PubChem BioAssay AID330 (DTP/NCI, 2004)
“And” between values parts separate entries of the source, which are not always exact repeats. Equal values may be shown once. Toxic doses and inconclusive results are not listed. The calls were made as follows: active = survival T/C of 150% or more; inactive = T/C below 125% in these data.

Tested on: P388 leukemia ip, CD2F1 mice, survival T/C
Experiment: NCI In Vivo Anticancer Drug Screen. Data for tumor model P388 Leukemia (intraperitoneal) in CD2F1 (CDF1) mice
Settings: endpoint: median survival time, higher = longer survival
How it was run: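 Mice carrying the transplanted tumor received test compound or vehicle. Survival was recorded in each group, and the value is the treated-group measurement divided by that of the vehicle-treated control group.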

[1] = dose: 50.0 mg/kg/injection, schedule: Q01DX009 (ip), vehicle: Klucel (hydroxypropylcellulose) (HPC)
[2] = dose: 100.0 mg/kg/injection, schedule: Q01DX009 (ip), vehicle: Klucel (hydroxypropylcellulose) (HPC)
[3] = dose: 200.0 mg/kg/injection, schedule: Q01DX009 (ip), vehicle: Klucel (hydroxypropylcellulose) (HPC)
[4] = dose: 100.0 mg/kg/injection, schedule: Q04DX003 (ip), vehicle: Klucel (hydroxypropylcellulose) (HPC)
[5] = dose: 200.0 mg/kg/injection, schedule: Q04DX003 (ip), vehicle: Klucel (hydroxypropylcellulose) (HPC)
[6] = dose: 400.0 mg/kg/injection, schedule: Q04DX003 (ip), vehicle: Klucel (hydroxypropylcellulose) (HPC)
[7] = dose: 50.0 mg/kg/injection, schedule: Q01DX009 (ip), vehicle: saline with Tween-80
[8] = dose: 100.0 mg/kg/injection, schedule: Q01DX009 (ip), vehicle: saline with Tween-80
[9] = dose: 200.0 mg/kg/injection, schedule: Q01DX009 (ip), vehicle: saline with Tween-80
[10] = dose: 25.0 mg/kg/injection, schedule: Q01DX009 (ip), vehicle: saline with Tween-80
[11] = dose: 50.0 mg/kg/injection, schedule: Q01DX005 (ip), vehicle: saline
[12] = dose: 200.0 mg/kg/injection, schedule: Q01DX005 (ip), vehicle: saline
[13] = dose: 200.0 mg/kg/injection, schedule: Q01DX009 (ip), vehicle: saline

Measured: T/C

Cc1ccccc1NC(=O)OCC(CCl)(CCl)CCl
inactive: dose: 100.0 mg/kg/injection, schedule: Q04DX002 (ip), vehicle: Klucel (hydroxypropylcellulose) (HPC) 99 % of control | dose: 200.0 mg/kg/injection, schedule: Q04DX002 (ip), vehicle: Klucel (hydroxypropylcellulose) (HPC) 96 % of control | dose: 400.0 mg/kg/injection, schedule: Q04DX002 (ip), vehicle: Klucel (hydroxypropylcellulose) (HPC) 89 % of control

CC1OC(O[C@@H]2C=C3CC[C@@H]4[C@H](CC[C@]5(C)[C@@H](c6ccc(=O)oc6)CC[C@]45O)[C@@]3(C)CC2)C(O)C(O)C1O (some centres undefined)
inactive: dose: 1.25 mg/kg/injection, schedule: Q01DX010 (sc), vehicle: steriod suspending solution 110 % of control | dose: 2.5 mg/kg/injection, schedule: Q01DX010 (sc), vehicle: steriod suspending solution 110 % of control | dose: 5.0 mg/kg/injection, schedule: Q01DX010 (sc), vehicle: steriod suspending solution 110 % of control | dose: 10.0 mg/kg/injection, schedule: Q01DX010 (sc), vehicle: steriod suspending solution 115 % of control

COC(=O)N1c2ccccc2C(c2ccccc2)=NC1C#N (centres undefined)
inactive: dose: 7.5 mg/kg/injection, schedule: Q01DX005 (ip), vehicle: saline with Tween-80 103 % of control | dose: 15.0 mg/kg/injection, schedule: Q01DX005 (ip), vehicle: saline with Tween-80 112 % of control | dose: 30.0 mg/kg/injection, schedule: Q01DX005 (ip), vehicle: saline with Tween-80 103 % of control

O=C(O)C1=C(C(=O)Nc2ccc(NC(=O)C3=C(C(=O)O)CCC3)cc2)CCC1
inactive: dose: 12.5 mg/kg/injection, schedule: Q01DX009 (ip), vehicle: distilled water + Tween-80 93 % of control | dose: 25.0 mg/kg/injection, schedule: Q01DX009 (ip), vehicle: distilled water + Tween-80 98 % of control | dose: 50.0 mg/kg/injection, schedule: Q01DX009 (ip), vehicle: distilled water + Tween-80 97 % of control | dose: 100.0 mg/kg/injection, schedule: Q01DX009 (ip), vehicle: distilled water + Tween-80 105 % of control | dose: 200.0 mg/kg/injection, schedule: Q01DX009 (ip), vehicle: distilled water + Tween-80 115 % of control

N#CC1C(=O)NC(=O)C(C#N)C1c1ccc(Cl)cc1 (centres undefined)
inactive: [1] 101 % of control | [2] 100 % of control | [3] 101 % of control

Cc1ccc(NC(=O)C(C)C)cc1
inactive: [4] 100 % of control | [5] 101 % of control | [6] 109 % of control

CN(C)C1C=C(c2ccccc2)OS(=O)(=O)C1 (centres undefined)
inactive: [7] 99 % of control | [8] 97 % of control | [9] 113 % of control

CC1CCCC(C)N1C1=NCCO1 (centres undefined)
inactive: dose: 5.0 mg/kg/injection, schedule: Q04DX003 (ip), vehicle: saline 95 % of control | dose: 10.0 mg/kg/injection, schedule: Q04DX003 (ip), vehicle: saline 100 % of control | dose: 20.0 mg/kg/injection, schedule: Q04DX003 (ip), vehicle: saline 95 % of control

CC1(C)CC(=O)C(CC2C(=O)CC(C)(C)CC2=O)C(=O)C1
inactive: [10] 87 % of control | [7] 97 % of control | [8] 103 % of control | [9] 95 % of control

CN=S(=O)(c1ccccc1)C1(C)CC(C)=C(C)CS1=O (centres undefined)
inactive: dose: 60.0 mg/kg/injection, schedule: Q01DX005 (ip), vehicle: saline 94 % of control | dose: 120.0 mg/kg/injection, schedule: Q01DX005 (ip), vehicle: saline 97 % of control | dose: 240.0 mg/kg/injection, schedule: Q01DX005 (ip), vehicle: saline 103 % of control

O=C(O)C(c1ccccc1)C1CCCC1 (centres undefined)
inactive: dose: 50.0 mg/kg/injection, schedule: Q04DX003 (ip), vehicle: saline with Tween-80 110 % of control | dose: 100.0 mg/kg/injection, schedule: Q04DX003 (ip), vehicle: saline with Tween-80 110 % of control | dose: 200.0 mg/kg/injection, schedule: Q04DX003 (ip), vehicle: saline with Tween-80 105 % of control

CN1CCN(Cc2ncc(C3CCCCC3)c(=O)[nH]2)CC1
inactive: [10] 100 % of control | [7] 102 % of control | [8] 97 % of control

CCC(C)C1C(=O)OC(C(Cl)(Cl)Cl)N1Cc1ccc(OC)cc1OC (centres undefined)
inactive: [4] 109 % of control | [5] 107 % of control | [6] 104 % of control

CC1(C)NN=C(SCc2ccccc2)NC1=O
inactive: [4] 98 % of control | [5] 100 % of control | [6] 92 % of control

Cc1cc(C)n(C2=NC3(C)NC(=O)NC3(C)N2)n1 (centres undefined)
inactive: dose: 50.0 mg/kg/injection, schedule: Q04DX002 (ip), vehicle: saline with Tween-80 98 % of control | dose: 100.0 mg/kg/injection, schedule: Q04DX002 (ip), vehicle: saline with Tween-80 94 % of control | dose: 200.0 mg/kg/injection, schedule: Q04DX002 (ip), vehicle: saline with Tween-80 98 % of control

CNc1nnnn1C
inactive: [11] 98 % of control | dose: 100.0 mg/kg/injection, schedule: Q01DX005 (ip), vehicle: saline 98 % of control | [12] 98 % of control

CCOP(=O)(O)C1CCCC(C)[N-]1.CCOP(=O)(O)C1CCCC(C)[N-]1.CCOP(=O)(O)C1CCCC(C)[N-]1.[Fe+3] (centres undefined)
inactive: dose: 12.5 mg/kg/injection, schedule: Q04DX003 (ip), vehicle: saline 91 % of control | dose: 25.0 mg/kg/injection, schedule: Q04DX003 (ip), vehicle: saline 95 % of control | dose: 50.0 mg/kg/injection, schedule: Q04DX003 (ip), vehicle: saline 94 % of control | dose: 400.0 mg/kg/injection, schedule: Q04DX003 (ip), vehicle: saline 86 % of control

O=c1ccn(C2OC(CO)C(O)C2O)c(=O)[nH]1 (centres undefined)
inactive: dose: 25.0 mg/kg/injection, schedule: Q01DX009 (ip), vehicle: water 100 % of control | dose: 32.0 mg/kg/injection, schedule: Q01DX009 (ip), vehicle: Klucel (hydroxypropylcellulose) (HPC) 90 % of control | dose: 32.0 mg/kg/injection, schedule: Q01DX009 (ip), vehicle: saline 86 % of control and 87 % of control | dose: 50.0 mg/kg/injection, schedule: Q01DX009 (ip), vehicle: saline 108 % of control | dose: 50.0 mg/kg/injection, schedule: Q01DX009 (ip), vehicle: water 100 % of control | dose: 64.0 mg/kg/injection, schedule: Q01DX009 (ip), vehicle: Klucel (hydroxypropylcellulose) (HPC) 90 % of control | dose: 100.0 mg/kg/injection, schedule: Q01DX009 (ip), vehicle: saline 94 % of control and 115 % of control | dose: 100.0 mg/kg/injection, schedule: Q01DX009 (ip), vehicle: water 106 % of control | dose: 128.0 mg/kg/injection, schedule: Q01DX009 (ip), vehicle: Klucel (hydroxypropylcellulose) (HPC) 88 % of control | [13] 94 % of control and 112 % of control | dose: 200.0 mg/kg/injection, schedule: Q01DX009 (ip), vehicle: water 106 % of control | dose: 256.0 mg/kg/injection, schedule: Q01DX009 (ip), vehicle: Klucel (hydroxypropylcellulose) (HPC) 98 % of control | dose: 400.0 mg/kg/injection, schedule: Q01DX009 (ip), vehicle: saline 103 % of control and 100 % of control | dose: 400.0 mg/kg/injection, schedule: Q01DX009 (ip), vehicle: water 108 % of control | dose: 512.0 mg/kg/injection, schedule: Q01DX009 (ip), vehicle: Klucel (hydroxypropylcellulose) (HPC) 98 % of control | dose: 800.0 mg/kg/injection, schedule: Q01DX009 (ip), vehicle: saline 98 % of control | dose: 1024.0 mg/kg/injection, schedule: Q01DX009 (ip), vehicle: saline 100 % of control and 89 % of control | dose: 1600.0 mg/kg/injection, schedule: Q01DX009 (ip), vehicle: saline 98 % of control

CCCCCCC[CH2][Sn]([S][Sn]([CH2]CCCCCCC)([c]1ccccc1)[c]1ccccc1)([c]1ccccc1)[c]1ccccc1
inactive: dose: 6.25 mg/kg/injection, schedule: Q01DX009 (ip), vehicle: saline 101 % of control | dose: 12.5 mg/kg/injection, schedule: Q01DX009 (ip), vehicle: saline 98 % of control | dose: 25.0 mg/kg/injection, schedule: Q01DX009 (ip), vehicle: saline 101 % of control | [13] 86 % of control

CCC1CCC2COCN2C1 (centres undefined)
inactive: dose: 25.0 mg/kg/injection, schedule: Q01DX005 (ip), vehicle: saline 104 % of control | [11] 120 % of control | [12] 117 % of control and 118 % of control

CC(=O)C1C(=O)C(=O)N(Cc2ccccc2)C1=O (centres undefined)
inactive: [1] 96 % of control | [2] 114 % of control | [3] 100 % of control
